Usually IC50 stands for the concentration that gives 50% inhibition.

The source made the active and inactive calls. The rule behind the calls is not given here.

We go through 50 compounds from PubChem BioAssay AID838 (SRMLSC, 2007).

The target in the test is Pantothenate synthetase (Mycobacterium tuberculosis (strain ATCC 25618 / H37Rv)) (UniProt P9WIL5). Briefly: Biochemical confirmation of M. tuberculosis pantothenate synthetase inhibitors (AID 838). Particulars: M. tuberculosis pantothenate synthetase enzyme inhibition; for inhibition: at 100 µM, hits give high values.
Sequence of Pantothenate synthetase (Mycobacterium tuberculosis (strain ATCC 25618 / H37Rv)) (P9WIL5 whole entry, looked up): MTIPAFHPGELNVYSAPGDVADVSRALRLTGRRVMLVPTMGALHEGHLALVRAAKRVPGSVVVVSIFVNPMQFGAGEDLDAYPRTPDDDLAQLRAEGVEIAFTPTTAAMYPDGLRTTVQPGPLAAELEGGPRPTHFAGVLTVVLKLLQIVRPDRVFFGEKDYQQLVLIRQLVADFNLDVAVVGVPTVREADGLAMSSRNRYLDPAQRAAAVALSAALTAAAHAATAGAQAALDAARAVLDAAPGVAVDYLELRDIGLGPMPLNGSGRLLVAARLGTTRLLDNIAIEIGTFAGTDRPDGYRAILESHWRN

In the case of `Cc1cc(C(=O)N2CCCC(CN3CCC(C(F)(F)F)CC3)C2)no1` (stereo not given), the inhibition result is “inactive”.

As to `COc1cccc(-c2cc(C(=O)Nc3cnn(Cc4ccccc4C)c3)no2)c1`, the inhibition result is “inactive”.

As to `Cc1ccccc1Cn1cc(NC(=O)c2noc3c2CCCC3)cn1`, the inhibition entry was “inactive”.

On to `Cc1cc(C(=O)N2CCc3[nH]cnc3C2c2ccc(-n3cncn3)cc2)no1` (stereo not given), for which the inhibition result was “inactive”.

Take `Cc1cccc(CN2C(=O)COc3cc(C(=O)N4CCN(Cc5ccccc5)CC4)ccc32)c1`: the inhibition result was “inactive”.

On to `CC(C)(C)C1CCc2onc(C(=O)Nc3cnn(Cc4ccccc4I)c3)c2C1` (stereo not given), for which the IC50 was 0.104 µM.

With `Cc1cc(C(=O)N2CCc3[nH]cnc3C2c2ccc(F)cc2)no1` (stereo not given), the inhibition entry is “inactive”.

As to `O=C(Nc1cnn(Cc2ccc(F)cc2)c1)c1noc2ccccc12`, the inhibition entry was “inactive”.

For `COc1cc(CN(C)C(=O)c2ccc(N3CCC(O)(c4cccc(C(F)(F)F)c4)CC3)nc2)cc(OC)c1OC`, the inhibition result was “inactive”.

Consider `CC(C)(C)c1ccc2onc(C(=O)Nc3cnn(Cc4ccc(I)cc4)c3)c2c1`, for which the IC50 was 36.3 µM.

Consider `COc1cc(CN(C)C(=O)c2ccc(N3CCc4ccccc4C3)nc2)cc(OC)c1OC`, for which the inhibition result was “inactive”.

`COCCN(CC1CCCN(C(=O)c2cc(C)on2)C1)C(C)C` (stereo not given): the inhibition entry was “inactive”.

For the compound `COc1cc(CN(C)C(=O)c2ccc(N3CCC(O)(Cc4ccccc4)CC3)nc2)cc(OC)c1OC`, the inhibition result was “inactive”.

For `CC(C)(C)c1ccc2onc(C(=O)Nc3cnn(Cc4ccc(F)cc4)c3)c2c1`, the IC50 was 0.351 µM.

As for `Cc1cc(C(=O)N2CCCC(CN3CCN(c4cnccn4)CC3)C2)no1` (stereo not given), the inhibition entry was “inactive”.

As for `CCCc1cc(C(=O)Nc2cnn(Cc3ccc(F)cc3)c2)no1`, the inhibition result was “inactive”.

With `O=C(Nc1cnn(Cc2ccc(Cl)cc2Cl)c1)c1noc2c1CCCCC2`, the inhibition result is “inactive”.

On to `Cc1cc(C(=O)NCCc2nc(C(=O)NCCN(C)C)cs2)no1`, for which the inhibition result is “inactive”.

Turning to `CC(C)(C)C1CCc2onc(C(=O)Nc3cnn(Cc4ccc(F)cc4F)c3)c2C1` (stereo not given), the IC50 is 0.128 µM.

On to `CC(C)(C)C1CCc2onc(C(=O)Nc3cnn(Cc4ccc(I)cc4)c3)c2C1` (stereo not given), for which the half-inhibitory concentration (IC50) was 0.068 µM.

`CCc1ccc(C2c3nc[nH]c3CCN2C(=O)c2cc(C)on2)cc1` (stereo not given): the inhibition entry is “inactive”.

Turning to `O=C(Nc1cnn(Cc2ccc(F)cc2)c1)c1noc2ccc(-c3ccccc3)cc12`, the IC50 is 108 µM.

On to `CCCN(CC1CC1)CC1CCCN(C(=O)c2cc(C)on2)C1` (stereo not given), for which the inhibition result was “inactive”.

Regarding `O=C(Nc1cnn(Cc2ccc(Cl)cc2Cl)c1)c1noc2c1CCCC2`, the inhibition result was “inactive”.

Regarding `CCN(Cc1ccncc1)CC1CCCN(C(=O)c2cc(C)on2)C1` (stereo not given), the inhibition entry is “inactive”.

As to `O=C(Nc1cnn(Cc2ccc(F)cc2)c1)c1noc2c1CCCC2`, the inhibition result was “inactive”.

In the case of `CC(C)(C)c1ccc2onc(C(=O)Nc3cnn(Cc4cccc(F)c4)c3)c2c1`, the 50% inhibitory concentration (IC50) was 0.64 µM.

For `Cc1ccccc1Cn1cc(NC(=O)c2cc(-c3cccs3)on2)cn1`, the inhibition entry was “inactive”.

Consider `Cc1noc(C)c1CN1C(=O)COc2cc(C(=O)NCc3ccc(C(F)(F)F)nc3)ccc21`, for which the inhibition result is “inactive”.

For the compound `CC(C)(C)C1CCc2onc(C(=O)Nc3cnn(Cc4ccc(Cl)cc4Cl)c3)c2C1` (stereo not given), the IC50 was 0.111 µM.

Take `Cc1ccccc1Cn1cc(NC(=O)c2noc3c2CC(C(C)(C)C)CC3)cn1` (stereo not given): the IC50 was 0.15 µM.

As to `CC(C)(C)c1ccc2onc(C(=O)Nc3cnn(Cc4cccc(F)c4)c3Cl)c2c1`, the inhibition entry was “inactive”.

For the compound `O=C(Nc1cnn(Cc2ccc(F)cc2)c1)c1cc(C2CC2)on1`, the inhibition entry is “inactive”.

With `COc1cc(C(=O)Nc2cnn(Cc3cccc(I)c3)c2)cc(OC)c1OC`, the inhibition entry is “inactive”.

As for `CC(C)(C)C1CCc2onc(C(=O)Nc3cnn(Cc4ccccc4C(F)(F)F)c3)c2C1` (stereo not given), the concentration for half-maximal inhibition (IC50) was 0.274 µM.

Consider `Cc1onc(-c2ccccc2Cl)c1C(=O)Nc1cnn(Cc2ccccc2)c1`, for which the inhibition entry is “inactive”.

Consider `COc1ccccc1-c1cc(C(=O)Nc2cnn(Cc3ccccc3C)c2)no1`, for which the inhibition entry was “inactive”.

Take `Cc1cc(C(=O)N2CCCN(c3cc(-c4ccc5ccccc5c4)ncn3)CC2)no1`: the inhibition entry is “inactive”.

Regarding `Cc1ccccc1Cn1cc(NC(=O)c2cc(C3CC3)on2)cn1`, the inhibition result is “inactive”.

On to `Cc1ccccc1Cn1cc(NC(=O)c2cc(-c3ccco3)on2)cn1`, for which the inhibition result is “inactive”.

As to `Cc1cc(C(=O)N2CCCC(CN3CCc4ccccc4C3)C2)no1` (stereo not given), the inhibition result was “inactive”.

Take `COc1ccc(-c2cc(C(=O)Nc3cnn(Cc4ccccc4C)c3)no2)cc1`: the IC50 is 47.7 µM.

`O=C(Nc1cnn(Cc2ccc(F)cc2)c1)c1noc2c1CC(c1ccccc1)CC2` (stereo not given): the inhibition entry is “inactive”.

Consider `O=C(Cn1nc(C2CC2)cc1C(F)F)Nc1cnn(Cc2c(F)cc(F)c(F)c2F)c1`, for which the inhibition entry is “inactive”.

On to `CCOc1ccc(Cn2cc(NC(=O)C(C)(C)n3cc([N+](=O)[O-])cn3)cn2)cc1OCC`, for which the inhibition entry is “inactive”.

On to `Cc1cc(C(=O)N2CCCN(c3cc(-c4cc(F)ccc4C)ncn3)CC2)no1`, for which the inhibition entry was “inactive”.

`Cc1cc(C(=O)N2CCCC(CN(C)Cc3ccc(Cl)cc3)C2)no1` (stereo not given): the inhibition entry was “inactive”.

Regarding `Cc1cc(C(=O)N2CCc3[nH]cnc3C2c2ccccc2F)no1` (stereo not given), the inhibition result is “inactive”.

With `COc1cccc(C2c3nc[nH]c3CCN2C(=O)c2cc(C)on2)c1` (stereo not given), the inhibition entry is “inactive”.

For the compound `CC(C)(C)C1CCc2onc(C(=O)Nc3cnn(Cc4cccc(I)c4)c3)c2C1` (stereo not given), the half-inhibitory concentration (IC50) was 0.101 µM.
